US10294246B2, “Substituted boronic acids and boronate esters as immunoproteasome inhibitors” (MERCK PATENT GMBH, priority 2014, dated 2019)

Assays:
[1] = biological target: human immunoproteasome (LMP7) (Homo sapiens (Human), UniProt P28062); test: Determination of LMP7 activity (fluorescence intensity assay, Suc-LLVY-AMC); assay type: biochemical; conditions: for Selectivity LMP7 vs Beta5: LMP7 versus Beta5; for IC50: purified human immunoproteasome 0.25 nM, Suc-LLVY-AMC 40 μM
Method: Determination of LMP7 Activity:
Measurement of LMP7 inhibition is performed in 384 well format based on fluorescence intensity assay.
(§1) Purified human immunoproteasome (0.25 nM) and serial diluted compounds in DMSO (range of concentrations from 30 μM to […]) or controls are incubated for 20 minutes at 25° C. in assay buffer containing 50 mM Tris pH 7.4, 0.03% SDS, 1 mM EDTA and 1% DMSO. The reaction is initiated by the addition of the fluorogenic peptide substrate, Suc-LLVY-AMC (Bachem 1-1395), at a concentration of 40 μM. After 60 minutes of incubation at 37° C., fluorescence intensity is measured at λex=350 nm and λem=450 nm with a fluorescence reader (Perkin Elmer Envision reader or equivalent).

[2] = biological target: human constitutive proteasome (Beta5) (Homo sapiens (Human), UniProt P28074); test: Determination of Beta5 activity (fluorescence intensity assay, Suc-LLVY-AMC); assay type: biochemical; conditions: purified human constitutive proteasome 1.25 nM, Suc-LLVY-AMC 40 μM
Method: Determination of Beta5 Activity:
Measurement of Beta5 inhibition is performed in 384 well format based on fluorescence intensity assay.
as §1, with “constitutive proteasome (1.25” for “immunoproteasome (0.25”

Selectivity LMP7 vs Beta5 [1]	IC50 [1]	IC50 [2]	Compound
+++ (50 ≤ Selectivity < 70)	< 50 nM	500 to 5000 nM	O=C(Cc1ccccc1OCCO)N[C@@H](Cc1coc2ccccc12)B(O)O [Compound No. 50, [(1R)-2-(benzofuran-3-yl)-1-[[2-[2-(2-hydroxyethoxy)phenyl]acetyl]-amino]ethyl]boronic acid]
+++++ (Selectivity ≥ 100)	–	500 to 5000 nM	COc1ccc(C(F)(F)C(=O)N[C@@H](Cc2coc3ccccc23)B(O)O)cc1 [Compound No. 51, [(1R)-2-(benzofuran-3-yl)-1-[[2,2-difluoro-2-(4-methoxyphenyl)acetyl]-amino]ethyl]boronic acid]
++ (10 ≤ Selectivity < 50)	< 50 nM	50 to 500 nM	COc1cc(CC(=O)N[C@@H](Cc2coc3ccccc23)B(O)O)cc(OC)c1OC [Compound No. 52, [(1R)-2-(benzofuran-3-yl)-1-[[2-(3,4,5-trimethoxyphenyl)acetyl]amino]-ethyl]boronic acid]
++ (10 ≤ Selectivity < 50)	< 50 nM	500 to 5000 nM	Cc1ccc(C[C@H](NC(=O)Cc2ccc(NC(=O)C(F)(F)F)cc2)B(O)O)c(C)c1 [Compound No. 53, [(1R)-2-(2,4-dimethylphenyl)-1-[[2-[4-[(2,2,2-trifluoroacetyl)amino]-phenyl]acetyl]amino]ethyl]boronic acid]
+++++ (Selectivity ≥ 100)	< 50 nM	50 to 500 nM	O=C(Cc1ccccc1OC1CCOCC1)N[C@@H](Cc1coc2ccccc12)B(O)O [Compound No. 54, [(1R)-2-(benzofuran-3-yl)-1-[[2-(2-tetrahydropyran-4-yloxyphenyl)-acetyl]amino]ethyl]boronic acid]
++++ (70 ≤ Selectivity < 100)	< 50 nM	500 to 5000 nM	O=C(Cc1ccccc1OCCCO)N[C@@H](Cc1coc2ccccc12)B(O)O [Compound No. 55, [(1R)-2-(benzofuran-3-yl)-1-[[2-[2-(3-hydroxypropoxy)phenyl]acetyl]-amino]ethyl]boronic acid]
+++++ (Selectivity ≥ 100)	50 to 500 nM	> 5000 nM	O=C(N[C@H](Cc1coc2ccccc12)B(O)O)[C@H](CO)c1ccccc1 [Compound No. 56, [(1S)-2-(benzofuran-3-yl)-1-[[(2S)-3-hydroxy-2-phenyl-propanoyl]-amino]ethyl]boronic acid]
+++++ (Selectivity ≥ 100)	< 50 nM	500 to 5000 nM	O=C(N[C@@H](Cc1coc2ccccc12)B(O)O)[C@H](CO)c1ccccc1 [Compound No. 57, [(1R)-2-(benzofuran-3-yl)-1-[[(2S)-3-hydroxy-2-phenyl-propanoyl]-amino]ethyl]boronic acid]
++++ (70 ≤ Selectivity < 100)	< 50 nM	50 to 500 nM	COc1ccc(OC)c(CC(=O)N[C@@H](Cc2coc3ccccc23)B(O)O)c1 [Compound No. 58, [(1R)-2-(benzofuran-3-yl)-1-[[2-(2,5-dimethoxyphenyl)acetyl]amino]-ethyl]boronic acid]
++++ (70 ≤ Selectivity < 100)	< 50 nM	50 to 500 nM	O=C(N[C@@H](Cc1coc2ccccc12)B(O)O)[C@@H](CO)c1ccccc1 [Compound No. 59, [(1R)-2-(benzofuran-3-yl)-1-[[(2R)-3-hydroxy-2-phenyl-propanoyl]-amino]ethyl]boronic acid]
++++ (70 ≤ Selectivity < 100)	< 50 nM	50 to 500 nM	COc1ccc(CC(=O)N[C@@H](Cc2coc3ccccc23)B(O)O)c(OC)c1OC [Compound No. 60, [(1R)-2-(benzofuran-3-yl)-1-[[2-(2,3,4-trimethoxyphenyl)acetyl]amino]-ethyl]boronic acid]
+++++ (Selectivity ≥ 100)	50 to 500 nM	> 5000 nM	O=C(Cc1ccccc1OCCCO)N[C@H](Cc1coc2ccccc12)B(O)O [Compound No. 61, [(1S)-2-(benzofuran-3-yl)-1-[[2-[2-(3-hydroxypropoxy)phenyl]acetyl]-amino]ethyl]boronic acid]
+++++ (Selectivity ≥ 100)	< 50 nM	500 to 5000 nM	O=C(N[C@H](Cc1coc2ccccc12)B(O)O)[C@@H](CO)c1ccccc1 [Compound No. 62, [(1S)-2-(benzofuran-3-yl)-1-[[(2R)-3-hydroxy-2-phenyl-propanoyl]-amino]ethyl]boronic acid]
+++++ (Selectivity ≥ 100)	< 50 nM	500 to 5000 nM	O=C(Cc1ccccc1C(=O)N1CCOCC1)N[C@@H](Cc1coc2ccccc12)B(O)O [Compound No. 63, [(1R)-2-(benzofuran-3-yl)-1-[[2-[2-(morpholine-4-carbonyl)phenyl]-acetyl]amino]ethyl]boronic acid]
+++ (50 ≤ Selectivity < 70)	< 50 nM	50 to 500 nM	O=C(Cc1ccc(N2CCCC2=O)cc1)N[C@@H](Cc1coc2ccccc12)B(O)O [Compound No. 64, [(1R)-2-(benzofuran-3-yl)-1-[[2-[4-(2-oxopyrrolidin-1-yl)phenyl]acetyl]-amino]ethyl]boronic acid]
++++ (70 ≤ Selectivity < 100)	< 50 nM	500 to 5000 nM	CCNC(=O)c1ccccc1CC(=O)N[C@@H](Cc1coc2ccccc12)B(O)O [Compound No. 65, [(1R)-2-(benzofuran-3-yl)-1-[[2-[2-(ethylcarbamoyl)phenyl]acetyl]-amino]ethyl]boronic acid]
+++++ (Selectivity ≥ 100)	< 50 nM	500 to 5000 nM	CN(C)C(=O)c1ccccc1CC(=O)N[C@@H](Cc1coc2ccccc12)B(O)O [Compound No. 66, [(1R)-2-(benzofuran-3-yl)-1-[[2-[2-(dimethylcarbamoyl)phenyl]acetyl]-amino]ethyl]boronic acid]
++ (10 ≤ Selectivity < 50)	< 50 nM	500 to 5000 nM	O=C(Cc1ccc(-c2ccccc2)cc1)N[C@@H](Cc1coc2ccccc12)B(O)O [Compound No. 67, [(1R)-2-(benzofuran-3-yl)-1-[[2-(4-phenylphenyl)acetyl]amino]ethyl]-boronic acid]
+++++ (Selectivity ≥ 100)	< 50 nM	500 to 5000 nM	O=C(N[C@@H](Cc1coc2ccccc12)B(O)O)C(c1ccccc1)c1ccccc1 [Compound No. 68, [(1R)-2-(benzofuran-3-yl)-1-[(2,2-diphenylacetyl)amino]ethyl]boronic acid]
++ (10 ≤ Selectivity < 50)	50 to 500 nM	500 to 5000 nM	O=C(Cc1ccc(-c2ccccc2)cc1)N[C@H](Cc1coc2ccccc12)B(O)O [Compound No. 69, [(1S)-2-(benzofuran-3-yl)-1-[[2-(4-phenylphenyl)acetyl]amino]ethyl]-boronic acid]
++++ (70 ≤ Selectivity < 100)	< 50 nM	500 to 5000 nM	COc1ccc(CC(C(=O)N[C@@H](Cc2coc3ccccc23)B(O)O)c2ccccc2)cc1 (stereo partly drawn) [Compound No. 71, [(1R)-2-(benzofuran-3-yl)-1-[[3-(4-methoxyphenyl)-2-phenyl-propanoyl]amino]ethyl]boronic acid]
+++ (50 ≤ Selectivity < 70)	< 50 nM	500 to 5000 nM	CCOC(=O)Nc1cccc(CC(=O)N[C@@H](Cc2coc3ccccc23)B(O)O)c1 [Compound No. 72, [(1R)-2-(benzofuran-3-yl)-1-[[2-[3-(ethoxycarbonylamino)phenyl]-acetyl]amino]ethyl]boronic acid]
+++ (50 ≤ Selectivity < 70)	50 to 500 nM	> 5000 nM	O=C(Cc1ccccc1)N[C@@H](Cc1c(Cl)oc2ccccc12)B(O)O [Compound No. 73, [(1R)-2-(2-chlorobenzofuran-3-yl)-1-[(2-phenylacetyl)amino]ethyl]-boronic acid]
+++++ (Selectivity ≥ 100)	< 50 nM	500 to 5000 nM	O=C(Cc1ccccc1)N[C@@H](CC1COc2ccccc21)B(O)O (stereo partly drawn) [Compound No. 74, [(1R)-2-(2,3-dihydrobenzofuran-3-yl)-1-[(2-phenylacetyl)amino]-ethyl]boronic acid]
+++++ (Selectivity ≥ 100)	< 50 nM	500 to 5000 nM	Cc1cccc2c(C[C@H](NC(=O)Cc3ccccc3)B(O)O)coc12 [Compound No. 75, [(1R)-2-(7-methylbenzofuran-3-yl)-1-[(2-phenylacetyl)amino]-ethyl]boronic acid]
+++++ (Selectivity ≥ 100)	< 50 nM	500 to 5000 nM	CO[C@@H](C(=O)N[C@@H](Cc1coc2c(C)cccc12)B(O)O)c1ccccc1 [Compound No. 76, [(1R)-1-[[(2R)-2-methoxy-2-phenyl-acetyl]amino]-2-(7-methylbenzofuran-3-yl)ethyl]boronic acid]
